Source: ChEMBL document CHEMBL3621185, “Progress in the development of fatty acid synthase inhibitors as anticancer targets” (Bioorg Med Chem Lett, 2015)

How the values were obtained:
Fatty acid synthase [1] = molecular target: T1, Fatty acid synthase (Homo sapiens, UniProt P49327); assay: Inhibition of fatty acid synthase (unknown origin)
Fatty acid synthase [2] = molecular target: T1, Fatty acid synthase; assay: Inhibition of fatty acid synthase KR domain (unknown origin)
A2780 = assay: Cytotoxicity against human A2780 cells; assay type: functional, cell-based
[3] = Cytotoxicity against human PC-3M-luc-C6 cells; assay type: functional, cell-based
[4] = Cytotoxicity against human MCF10A cells; assay type: functional, cell-based; conditions: MCF-10A

T1 sequence (P49327 whole entry, the tested form may be a part): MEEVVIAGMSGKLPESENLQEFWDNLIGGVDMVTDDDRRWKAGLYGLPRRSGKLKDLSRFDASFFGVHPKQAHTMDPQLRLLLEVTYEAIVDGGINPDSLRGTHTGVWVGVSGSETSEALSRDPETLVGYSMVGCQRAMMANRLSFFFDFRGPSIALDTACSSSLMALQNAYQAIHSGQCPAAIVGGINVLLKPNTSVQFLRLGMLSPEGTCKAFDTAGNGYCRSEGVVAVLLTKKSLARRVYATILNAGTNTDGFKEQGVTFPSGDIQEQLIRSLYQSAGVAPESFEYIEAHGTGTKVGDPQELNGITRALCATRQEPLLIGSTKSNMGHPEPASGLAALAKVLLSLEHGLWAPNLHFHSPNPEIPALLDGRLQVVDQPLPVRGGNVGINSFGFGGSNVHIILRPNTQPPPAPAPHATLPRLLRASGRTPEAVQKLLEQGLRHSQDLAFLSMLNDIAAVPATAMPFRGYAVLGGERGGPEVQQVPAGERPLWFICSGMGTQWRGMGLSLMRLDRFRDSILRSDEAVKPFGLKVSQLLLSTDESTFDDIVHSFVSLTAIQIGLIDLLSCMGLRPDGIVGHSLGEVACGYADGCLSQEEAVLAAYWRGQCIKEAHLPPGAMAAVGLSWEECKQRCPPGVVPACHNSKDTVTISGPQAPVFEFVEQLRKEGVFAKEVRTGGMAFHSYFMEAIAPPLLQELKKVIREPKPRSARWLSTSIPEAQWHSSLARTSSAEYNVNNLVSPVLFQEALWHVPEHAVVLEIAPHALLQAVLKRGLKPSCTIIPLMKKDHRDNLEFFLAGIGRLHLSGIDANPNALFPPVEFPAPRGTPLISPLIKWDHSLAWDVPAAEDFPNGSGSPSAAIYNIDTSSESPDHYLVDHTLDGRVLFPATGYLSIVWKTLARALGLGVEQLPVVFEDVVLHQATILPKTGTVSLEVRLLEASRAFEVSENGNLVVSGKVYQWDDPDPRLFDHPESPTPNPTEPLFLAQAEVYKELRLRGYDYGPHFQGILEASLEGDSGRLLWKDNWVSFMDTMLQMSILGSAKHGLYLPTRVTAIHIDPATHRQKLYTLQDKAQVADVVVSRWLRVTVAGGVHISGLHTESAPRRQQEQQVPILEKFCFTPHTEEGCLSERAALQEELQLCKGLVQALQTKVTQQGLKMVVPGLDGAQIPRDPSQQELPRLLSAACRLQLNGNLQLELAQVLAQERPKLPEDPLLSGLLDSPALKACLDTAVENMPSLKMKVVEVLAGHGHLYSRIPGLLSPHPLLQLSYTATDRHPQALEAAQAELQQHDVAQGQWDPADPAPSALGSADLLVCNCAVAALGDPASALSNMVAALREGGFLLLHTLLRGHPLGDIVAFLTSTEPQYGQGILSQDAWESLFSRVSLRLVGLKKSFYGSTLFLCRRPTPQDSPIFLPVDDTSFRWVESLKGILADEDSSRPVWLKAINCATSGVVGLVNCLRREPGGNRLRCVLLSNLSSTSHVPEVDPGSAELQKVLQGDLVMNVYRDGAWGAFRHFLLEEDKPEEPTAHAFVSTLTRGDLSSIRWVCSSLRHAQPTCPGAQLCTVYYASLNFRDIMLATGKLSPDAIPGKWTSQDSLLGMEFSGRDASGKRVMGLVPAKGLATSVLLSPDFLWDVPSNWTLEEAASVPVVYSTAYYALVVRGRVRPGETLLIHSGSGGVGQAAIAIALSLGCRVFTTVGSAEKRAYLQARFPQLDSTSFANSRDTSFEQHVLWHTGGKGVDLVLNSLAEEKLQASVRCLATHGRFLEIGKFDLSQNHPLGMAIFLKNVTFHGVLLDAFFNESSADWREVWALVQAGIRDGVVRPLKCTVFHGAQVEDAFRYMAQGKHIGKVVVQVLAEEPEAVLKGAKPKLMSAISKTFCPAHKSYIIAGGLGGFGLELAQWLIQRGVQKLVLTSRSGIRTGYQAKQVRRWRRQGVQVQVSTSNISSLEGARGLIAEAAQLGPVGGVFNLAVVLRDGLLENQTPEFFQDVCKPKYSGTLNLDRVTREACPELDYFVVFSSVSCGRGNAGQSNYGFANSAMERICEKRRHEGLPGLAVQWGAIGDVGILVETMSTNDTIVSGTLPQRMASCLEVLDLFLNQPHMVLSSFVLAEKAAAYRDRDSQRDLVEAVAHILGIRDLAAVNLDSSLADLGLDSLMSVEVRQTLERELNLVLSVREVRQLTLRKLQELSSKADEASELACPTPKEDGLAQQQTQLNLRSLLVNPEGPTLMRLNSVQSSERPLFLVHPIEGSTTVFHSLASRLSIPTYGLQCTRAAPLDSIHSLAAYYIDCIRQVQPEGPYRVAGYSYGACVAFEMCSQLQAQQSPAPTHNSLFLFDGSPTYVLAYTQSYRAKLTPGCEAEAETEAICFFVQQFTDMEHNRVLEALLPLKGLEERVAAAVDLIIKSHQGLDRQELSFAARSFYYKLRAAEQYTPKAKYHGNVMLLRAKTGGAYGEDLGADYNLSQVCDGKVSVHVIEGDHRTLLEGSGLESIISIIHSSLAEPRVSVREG

## N#Cc1ccc2cc(N3CCN(S(=O)(=O)N4CCC5(CC4)CN(C4CC4)C(=O)CO5)CC3)ccc2c1
Fatty acid synthase [1]
  IC50: 10 nM

## CN(C[C@@H]1CCN(C(=O)C2CC2)C1)C(=O)c1ccc(-c2ccc3[nH]ccc3c2)cc1F
Fatty acid synthase [1]
  IC50: 20 nM

## CC1(C)N=C(c2ccc(-c3c[nH]c4ccccc34)cc2)N(C[C@@H]2CCN(C(=O)C3CC3)C2)C1=O
Fatty acid synthase [2]
  IC50: 41 nM
A2780
  IC50: 3 nM
[3]
  IC50: 8 nM

## O=C(C1CC1)N1CC[C@@H](Cc2n[nH]c(=O)n2-c2ccc(-c3ccc4ccncc4c3)cc2F)C1
Fatty acid synthase [1]
  IC50: 3 nM

## Cc1ccc(C(=O)N2CCC(c3ccc4nncn4c3)CC2)cc1NC(=O)c1ccc(Cl)nc1
Fatty acid synthase [2]
  IC50: 93 nM
A2780
  IC50: 41 nM
[3]
  IC50: 35 nM

## O=C(C1CC1)N1CCC(Cn2cnnc2-c2ccc(-c3ccc4[nH]ncc4c3)cc2)C1 (single isomer, unassigned)
Fatty acid synthase [1]
  IC50: 13 nM

## Cc1cc(C)cc(N2C(=O)NC(=O)/C(=C\c3ccc(-c4ccccc4)o3)C2=O)c1
[4]
  IC50: 24300 nM

## O=C1COC2(CCN(S(=O)(=O)c3ccc(-c4cccc5cnccc45)cc3)CC2)CN1C1CC1
Fatty acid synthase [1]
  IC50: 6 nM
